# Results reported in ChEMBL document CHEMBL1139729, “Separation of anti-angiogenic and cytotoxic activities of borrelidin by modification at the C17 side chain” (Bioorg Med Chem Lett, 2006).
# Calls of active or inactive are those of the source. No cut-off for these calls is given here.
# Columns and labels:
# SF-268 [1] = experiment: Antiproliferative activity against SF268 cell line at 10 uM; format: functional; settings: Homo sapiens
# [2] = (§1) Antiproliferative activity against 251L cell line at 10 uM; format: functional; settings: Homo sapiens; values are per cent of control
# NCI-H460 [3] = experiment: Antiproliferative activity against H460 cell line at 10 uM; format: functional; settings: Homo sapiens
# MCF7 [4] = experiment: Antiproliferative activity against MCF7 cell line at 10 uM; format: functional; settings: Homo sapiens
# [5] = (§2) Antiproliferative activity against MDA231 cell line at 10 uM; format: functional; settings: Homo sapiens, MDA-MB-231; values are per cent of control
# [6] = (§3) Antiproliferative activity against MDA467 cell line at 10 uM; format: functional; settings: Homo sapiens; values are per cent of control
# [7] = (§4) Antiproliferative activity against 394NL cell line at 10 uM; format: functional; settings: Homo sapiens; values are per cent of control
# OVCAR-3 [8] = experiment: Antiproliferative activity against OVCAR-3 cell line at 10 uM; format: functional; settings: Homo sapiens
# DU-145 [9] = experiment: Antiproliferative activity against DU145 cell line at 10 uM; format: functional; settings: Homo sapiens
# LNCaP [10] = experiment: Antiproliferative activity against LNCAP cell line at 10 uM; format: functional; settings: Homo sapiens
# A498 [11] = experiment: Antiproliferative activity against A498 cell line at 10 uM; format: functional; settings: Homo sapiens
# [12] = (§5) Antiproliferative activity against 1138L cell line at 10 uM; format: functional; settings: Homo sapiens; values are per cent of control
# HUVEC [13] = experiment: Growth inhibition in HUVEC; format: functional, cell-based; settings: Homo sapiens
# [14] = Antiproliferative activity against NCI60 cell line; format: functional, cell-based; settings: Homo sapiens
# HUVEC [15] = experiment: Inhibition of HUVEC tubule formation assessed as number of branches at 10 nM; format: functional, Homo sapiens
# HUVEC [16] = experiment: Inhibition of HUVEC tubule formation assessed as number of branches at 100 nM; format: functional, Homo sapiens
# HUVEC [17] = experiment: Inhibition of HUVEC tubule formation assessed as length of branches at 10 nM; format: functional, Homo sapiens
# HUVEC [18] = experiment: Inhibition of HUVEC tubule formation assessed as length of branches at 100 nM; format: functional, Homo sapiens
# [19] = Maximum tolerated dose in iv dosed nude mouse; format: ADME, organism-based; settings: in vivo
# HUVEC [20] = experiment: Inhibition of HUVEC tubule formation assessed as number of branches at 0.75 pM; format: functional, Homo sapiens
# HUVEC [21] = experiment: Inhibition of HUVEC tubule formation assessed as number of branches at 0.25 pM; format: functional, Homo sapiens
# HUVEC [22] = experiment: Inhibition of HUVEC tubule formation assessed as length of branches at 0.75 pM; format: functional, Homo sapiens
# HUVEC [23] = experiment: Inhibition of HUVEC tubule formation assessed as length of branches at 0.25 pM; format: functional, Homo sapiens
# HUVEC [24] = experiment: Inhibition of HUVEC tubule formation assessed as number of branches at 75 pM; format: functional, Homo sapiens
# HUVEC [25] = experiment: Inhibition of HUVEC tubule formation assessed as number of branches at 25 pM; format: functional, Homo sapiens
# HUVEC [26] = experiment: Inhibition of HUVEC tubule formation assessed as length of branches at 75 pM; format: functional, Homo sapiens
# HUVEC [27] = experiment: Inhibition of HUVEC tubule formation assessed as length of branches at 25 pM; format: functional, Homo sapiens
# SF-268 [28] = experiment: Antiproliferative activity against SF268 cell line at 3 uM; format: functional; settings: Homo sapiens
# [29] = Antiproliferative activity against 251L cell line at 3 uM; format: functional; settings: Homo sapiens
# NCI-H460 [30] = experiment: Antiproliferative activity against H460 cell line at 3 uM; format: functional; settings: Homo sapiens
# MCF7 [31] = experiment: Antiproliferative activity against MCF7 cell line at 3 uM; format: functional; settings: Homo sapiens
# [32] = Antiproliferative activity against MDA231 cell line at 3 uM; format: functional; settings: Homo sapiens, MDA-MB-231
# [33] = Antiproliferative activity against MDA467 cell line at 3 uM; format: functional; settings: Homo sapiens
# [34] = Antiproliferative activity against 394NL cell line at 3 uM; format: functional; settings: Homo sapiens
# OVCAR-3 [35] = experiment: Antiproliferative activity against OVCAR-3 cell line at 3 uM; format: functional; settings: Homo sapiens
# DU-145 [36] = experiment: Antiproliferative activity against DU145 cell line at 3 uM; format: functional; settings: Homo sapiens
# LNCaP [37] = experiment: Antiproliferative activity against LNCAP cell line at 3 uM; format: functional; settings: Homo sapiens
# A498 [38] = experiment: Antiproliferative activity against A498 cell line at 3 uM; format: functional; settings: Homo sapiens
# [39] = Antiproliferative activity against 1138L cell line at 3 uM; format: functional; settings: Homo sapiens
# Homo sapiens [40] = organism: Homo sapiens; experiment: as §1; format: functional
# MDA-MB-231 = experiment: as §2; format: functional; settings: Homo sapiens
# Homo sapiens [41] = organism: Homo sapiens; experiment: as §3; format: functional
# Homo sapiens [42] = organism: Homo sapiens; experiment: as §4; format: functional
# Homo sapiens [43] = organism: Homo sapiens; experiment: as §5; format: functional
SMILES,inhibition at 10 µM (SF-268 [1]) [%],"growth, % of control at 10 µM [2] [%]",inhibition at 10 µM (NCI-H460 [3]) [%],inhibition at 10 µM (MCF7 [4]) [%],"growth, % of control at 10 µM [5] [%]","growth, % of control at 10 µM [6] [%]","growth, % of control at 10 µM [7] [%]",inhibition at 10 µM (OVCAR-3 [8]) [%],inhibition at 10 µM (DU-145 [9]) [%],inhibition at 10 µM (LNCaP [10]) [%],inhibition at 10 µM (A498 [11]) [%],"growth, % of control at 10 µM [12] [%]",IC50 (HUVEC [13]) [µM],IC50 [14] [µM],further results
CS[C@H](C[C@@H]1C/C=C/C=C(/C#N)[C@H](O)[C@@H](C)C[C@H](C)C[C@H](C)C[C@H](C)[C@@H](O)CC(=O)O1)C(=O)O,54,67,79,48,81,59,64,102,75,59,68,42,–,–,–
C[C@@H]1C[C@H](C)C[C@H](C)[C@@H](O)CC(=O)O[C@H]([C@@H]2CCC[C@H]2C(=O)O)C/C=C/C=C(/C#N)[C@H](O)[C@@H](C)C1 [BORRELIDIN],3,8,4,13,12,6,2,11,5,7,8,2,0.0005,0.02,Activity (HUVEC [15]): 230; Activity (HUVEC [16]): 233; Activity (HUVEC [17]): 64; Activity (HUVEC [18]): 65
C[C@@H]1C[C@H](C)C[C@H](C)[C@@H](O)CC(=O)O[C@H]([C@H](C)CC(=O)O)C/C=C/C=C(/C#N)[C@H](O)[C@@H](C)C1,13,26,38,12,20,15,9,32,55,24,21,5,–,–,–
C[C@@H]1C[C@H](C)C[C@H](C)[C@@H](O)CC(=O)O[C@H]([C@@H]2CC[C@H]2C(=O)O)C/C=C/C=C(/C#N)[C@H](O)[C@@H](C)C1,4,9,7,9,8,6,3,16,16,9,9,3,0.5,0.3,MTD [19]: > 130 mg/kg; Activity (HUVEC [20]): 40; Activity (HUVEC [21]): 38; Activity (HUVEC [22]): 63; Activity (HUVEC [23]): 65
C[C@@H]1C[C@H](C)C[C@H](C)[C@@H](O)CC(=O)O[C@H]([C@H](C)[C@H](C)C(=O)O)C/C=C/C=C(/C#N)[C@H](O)[C@@H](C)C1,3,12,3,9,7,7,4,6,7,7,9,3,0.001,0.07,Activity (HUVEC [24]): 246; Activity (HUVEC [25]): 116; Activity (HUVEC [26]): 63; Activity (HUVEC [27]): 62
C[C@@H]1C[C@H](C)C[C@H](C)[C@@H](O)CC(=O)O[C@H](C[C@@H](C)C(=O)O)C/C=C/C=C(/C#N)[C@H](O)[C@@H](C)C1,14,32,49,16,26,25,9,29,68,34,30,6,–,–,–
C[C@@H]1C[C@H](C)C[C@H](C)[C@@H](O)CC(=O)O[C@H](C[C@H](C)C(=O)O)C/C=C/C=C(/C#N)[C@H](O)[C@@H](C)C1,57,81,84,76,90,62,67,91,74,92,78,56,–,–,–
COc1cccc2c1C(=O)c1c(O)c3c(c(O)c1C2=O)C[C@@](O)(C(=O)CO)C[C@@H]3O[C@H]1C[C@H](N)[C@H](O)[C@H](C)O1 [DOXORUBICIN],–,–,–,–,–,–,–,–,–,–,–,–,–,–,inhibition at 3 µM (SF-268 [28]): 9%; inhibition at 3 µM [29]: 15%; inhibition at 3 µM (NCI-H460 [30]): 3%; inhibition at 3 µM (MCF7 [31]): 12%; inhibition at 3 µM [32]: 11%; inhibition at 3 µM [33]: 7%; inhibition at 3 µM [34]: 6%; inhibition at 3 µM (OVCAR-3 [35]): 10%; inhibition at 3 µM (DU-145 [36]): 5%; inhibition at 3 µM (LNCaP [37]): 10%; inhibition at 3 µM (A498 [38]): 11%; inhibition at 3 µM [39]: 6%
C/C1=C/C=C/C[C@@H]([C@@H]2CCC[C@H]2C(=O)O)OC(=O)C[C@H](O)[C@@H](C)C[C@@H](C)C[C@@H](C)C[C@H](C)[C@H]1O,–,–,–,–,–,–,–,–,–,–,–,–,–,–,Activity (SF-268 [1]): inactive; Activity (Homo sapiens [40]): inactive; Activity (NCI-H460 [3]): inactive; Activity (MCF7 [4]): inactive; Activity (MDA-MB-231): inactive; Activity (Homo sapiens [41]): inactive; Activity (Homo sapiens [42]): inactive; Activity (OVCAR-3 [8]): inactive; Activity (DU-145 [9]): inactive; Activity (LNCaP [10]): inactive; Activity (A498 [11]): inactive; Activity (Homo sapiens [43]): inactive; Activity (HUVEC [13]): inactive
